Eight molecules from patent publication US4657897A, “N^6 -substituted adenosines for treating pain” (Warner-Lambert Company, priority 1985, dated 1987) can be followed below.

The nature of assay [1]: Mouse Activity and Screen Test (MAST), screen test failure (ST). In kind it is in vivo, mouse (Swiss-Webster, male). Particulars: Mus musculus, ip; lowest dose at which an A rating is achieved; screen test; intraperitoneal, 1 h prior to testing; read-out: MAST ST LAD. As for the experimental part:
Treatments are administered intraperitoneally one hour prior to testing. […] Compounds are dissolved or suspended in 0.2% Methocel. Control animals are injected with Methocel.
The compounds are identified in the Examples.

The target of the next assay is T1, adenosine A1 receptor (Rattus norvegicus, UniProt P25099).
T1 construct: Whole brain minus cerebellum and brainstem from male Long Evans rats; from tissue; host or cells: rat whole brain minus cerebellum and brainstem (male Long Evans), membranes
T1 sequence (P25099 1-326): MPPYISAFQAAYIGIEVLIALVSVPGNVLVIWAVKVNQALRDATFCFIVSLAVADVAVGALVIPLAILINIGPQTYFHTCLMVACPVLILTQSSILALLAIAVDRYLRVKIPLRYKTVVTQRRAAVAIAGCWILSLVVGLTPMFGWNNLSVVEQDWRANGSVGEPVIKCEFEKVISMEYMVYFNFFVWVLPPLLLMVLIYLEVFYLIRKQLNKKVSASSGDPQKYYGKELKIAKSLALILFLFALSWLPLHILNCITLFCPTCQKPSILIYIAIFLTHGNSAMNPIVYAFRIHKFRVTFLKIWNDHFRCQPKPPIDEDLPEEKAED
The assay can be described thus: Adenosine Receptor Binding--A1 Receptor Affinity (RBA1), [3H]-CHA binding, rat whole brain membranes. Also noted: species or system rat (male Long Evans). To be noted: 1.0 nM [3H]-CHA, 25° C., 1 h. As for the experimental part: Adenosine Receptor Binding--A1 Receptor Affinity (RBA1)
Whole brain minus cerebellum and brainstem from male Long Evans rats (150-200 g) was homogenized in 30 volumes of ice-cold 0.05M Tris-HCl buffer pH 7.7 using a Brinkman Polytron PT-10, (setting number 6 for 20 seconds) and centrifuged for ten minutes at 20,000×g (Sorvall RC-2), 4° C. The supernatant was discarded, and the pellet was resuspended and centrifuged as before. The pellet was resuspended in 20 ml Tris-HCl buffer containing two International Units/ml of adenosine deaminase (Sigma type III from calf intestinal mucosa), incubated at 37° C. for 30 minutes, then subsequently at 0° C. for ten minutes. The homogenate was again centrifuged, and the final pellet was resuspended in ice-cold 0.05M Tris-HCl buffer pH 7.7 to a concentration of 20 mg/ml original wet tissue weight and used immediately.
Tissue homogenate (10 mg/ml) was incubated in 0.05M Tris-HCl buffer pH 7.7 containing 1.0 nM [^3 H]-N^6 -cyclohexyladenosine[^3 H]-CHA) with or without test agents in triplicate for one hour at 25° C. Incubation volume was 2 ml. Unbound [^3 H]-CHA was separated by rapid filtration under reduced pressure through Whatman glass fiber (GF/B) filters. The filters were rinsed three times with 5 ml of ice cold 0.05M Tris-HCl buffer pH 7.7. The radio-labeled ligand retained on the filter was measured by liquid scintillation spectrophotometry after shaking the filters for one hour or longer on a mechanical shaker in 10 ml of Beckman Ready-Solv HP scintillation cocktail.
Nonspecific binding was defined as the binding which occurred in the presence of 1 mM theophylline. The concentration of test agent which inhibited 50% of the specific binding (IC50) was determined by nonlinear computer curve fit. The Scatchard plot was calculated by linear regression of the line obtained by plotting the amount of radioligand bound (pmoles/gram of tissue) [formula] Since the amount of radioligand bound was a small fraction of the total amount added, free radioligand was defined as the concentration (nM) of radioligand added to the incubation mixture. The Hill coefficient was calculated by linear regression of the line obtained by plotting the log of the bound radioligand vs the log of the [formula] The maximal number of binding sites (Bmax) was calculated from the Scatchard plot.

A further assay addresses T2, adenosine A2 receptor (Rattus norvegicus, UniProt P30543).
T2 construct: 5 mg original tissue weight of rat weight of rat striatal membranes; tissue Pel-Freez (Rogers, Ark.) for the brains; host or cells: rat striatum (Sprague-Dawley; Long-Evans gave essentially identical results), membranes
Put plainly: Adenosine Receptor Binding--A2 Receptor Affinity (RBA2), [3H]NECA binding, rat striatal membranes. On the set-up: species or system rat (mixed sex Sprague-Dawley; male Long-Evans). Particulars: 4 nM [3H]NECA, 50 nM N6-cyclopentyladenosine, 25° C., 60 min. The protocol: Adenosine Receptor Binding--A2 Receptor Affinity (RBA2)
Brains from 200-500 g mixed sex Sprague-Dawley rats were purchased from Pel-Freez (Rogers, Ark.). […] Brains were thawed and then kept on ice while the striata were dissected out. Striata were disrupted in 10 vol of ice-cold 50 mM Tris.HCl (pH 7.7 at 25° C., pH 8.26 at 5° C.) (Tris) for 30 seconds in a Polytron PT-10 (Brinkmann) at setting 5. The suspension was centrifuged at 50,000 xg for ten minutes, the supernatant discarded, the pellet resuspended in 10 vol ice-cold Tris as above, recentrifuged, resuspended at 1 g/5 ml, and stored in plastic vials at -70° C. […] When needed, tissue was thawed at room temperature, disrupted in a Polytron, and kept on ice until used.
Test compounds were dissolved at 10 mM in dimethylsulfoxide on the same day as the experiment, and diluted in dimethylsulfoxide to 100× the final incubation concentration. […] [^3 H]NECA was diluted to 40 nM in Tris. […] After all additions, the rack of tubes was vortexed, and the tubes were then incubated for 60 min at 25° C. in a shaking water bath. The rack of tubes was vortexed an additional time halfway through the incubation.
Incubations were terminated by filtration through 2.4 cm GF/B filters under reduced pressure. Each tube was filtered as follows: the contents of the tube were poured onto the filter, 4 ml of ice-cold Tris were added to the tube and the contents poured onto the filter, and the filter was washed twice with 4 ml of ice-cold Tris. The filtration was complete in about twelve seconds. Filters were put in scintillation vials, 8 ml of Formula 947 scintillation fluid added, and the vials left overnight, shaken, and counted in a liquid scintillation counter at 40% efficiency.
The IC50 was calculated by weighted nonlinear least squares curve-fitting to the mass-action equation. [formula] where Y is cpm bound
T is cpm total binding without drug
S is cpm specific binding without drug
D is the concentration of drug
K is the IC50 of the drug
Weighting factors were calculated under the assumption that the standard deviation was proportional to the predicted value of Y. Nonspecific binding was treated as a very large (infinite) concentration of drug in the computer analysis.

T2 sequence (P30543 whole entry): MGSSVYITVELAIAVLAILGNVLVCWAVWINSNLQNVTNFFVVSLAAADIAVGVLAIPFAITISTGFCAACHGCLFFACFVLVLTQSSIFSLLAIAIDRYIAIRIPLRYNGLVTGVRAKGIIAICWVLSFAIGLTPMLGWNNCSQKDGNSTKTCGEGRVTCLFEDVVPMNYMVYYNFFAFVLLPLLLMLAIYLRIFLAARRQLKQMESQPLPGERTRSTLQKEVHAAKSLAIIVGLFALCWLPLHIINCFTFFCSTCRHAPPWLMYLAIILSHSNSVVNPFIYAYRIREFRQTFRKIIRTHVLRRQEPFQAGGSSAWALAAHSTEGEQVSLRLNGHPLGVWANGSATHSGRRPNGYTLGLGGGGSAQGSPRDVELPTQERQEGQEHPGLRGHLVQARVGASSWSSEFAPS

With `CC(CNc1nc(N)nc2c1ncn2[C@@H]1O[C@H](CO)[C@@H](O)[C@H]1O)(c1ccccc1)c1ccccc1` [Example 21, N^6-(2,2-Diphenylpropyl)-2-aminoadenosine], the minimal effective dose in assay [1] was more than 100 mg/kg. The figures for the IC50 on adenosine A1 receptor and on adenosine A2 receptor were 285 nM and 470 nM, respectively.

Regarding `OC[C@H]1O[C@@H](n2cnc3c(NCC(O)(c4ccccc4)c4ccccc4)ncnc32)[C@H](O)[C@@H]1O` [Example 22, N^6-(2,2-Diphenyl-2-hydroxyethyl)adenosine], the minimal effective dose in assay [1] turned out to be 100 mg/kg. In addition, the results for the IC50 at adenosine A1 receptor and on adenosine A2 receptor were 12 nM and 94 nM, respectively.

As for `Nc1nc(NCC(O)(c2ccccc2)c2ccccc2)c2ncn([C@@H]3O[C@H](CO)[C@@H](O)[C@H]3O)c2n1` [Example 23, N^6-(2,2-Diphenyl-2-hydroxyethyl)-2-aminoadenosine], the minimal effective dose in assay [1] is more than 100 mg/kg. In addition, the IC50 is 69 nM at adenosine A1 receptor and 293 nM at adenosine A2 receptor.

Take `COC(=O)C(CNc1ncnc2c1ncn2[C@@H]1O[C@H](CO)[C@@H](O)[C@H]1O)(c1ccccc1)c1ccccc1` [Example 24, N^6-(2-Carbomethoxy-2,2-diphenylethyl)adenosine]: the minimal effective dose in assay [1] is more than 30 mg/kg. Moreover, the IC50 at adenosine A1 receptor stood at 79 nM; at adenosine A2 receptor, 4600 nM.

As to `CC(=O)OC[C@H]1O[C@@H](n2cnc3c(NCC(c4ccccc4)c4ccccc4)ncnc32)[C@H](OC(C)=O)[C@@H]1OC(C)=O` [Example 25, 2',3',5'-Tri-O-acetyl-N^6-(2,2-diphenylethyl)adenosine], in assay [1], the minimal effective dose was more than 100 mg/kg. The IC50 is 53 nM at adenosine A1 receptor and 166 nM at adenosine A2 receptor.

Take `O=C(OC[C@H]1O[C@@H](n2cnc3c(NCC(c4ccccc4)c4ccccc4)ncnc32)[C@H](OC(=O)c2ccccc2)[C@@H]1OC(=O)c1ccccc1)c1ccccc1` [Example 26, 2',3',5'-Tri-O-benzoyl-N^6-(2,2-diphenylethyl)adenosine]: the minimal effective dose in assay [1] was more than 100 mg/kg. Further, the half-inhibitory concentration (IC50) at adenosine A1 receptor was 1230 nM; on adenosine A2 receptor, 3840 nM.

Turning to `CC(=O)OC[C@H]1O[C@@H](n2cnc3c(NCC(c4ccccc4)c4ccccc4)nc(Cl)nc32)[C@H](OC(C)=O)[C@@H]1OC(C)=O` [Example 27, 2',3',5'-Tri-O-acetyl-N^6-(2,2-diphenylethyl)-2-chloroadenosine], in assay [1], the minimal effective dose is more than 100 mg/kg. Moreover, the values for the IC50 at adenosine A1 receptor and on adenosine A2 receptor were 30900 nM and 6820 nM, respectively.

As for `CC1(C)O[C@@H]2[C@H](O1)[C@@H](CO)O[C@H]2n1cnc2c(NCC(c3ccccc3)c3ccccc3)ncnc21` [Example 29, 2',3'-O-Isopropylidene-N^6-(2,2-diphenylethyl)adenosine], in assay [1], the minimal effective dose is more than 100 mg/kg. For the same molecule, the IC50 on adenosine A1 receptor amounted to 242 nM; at adenosine A2 receptor it was 919 nM.
